# Measurements reported in paper PMC10247784, “Physiological activation of human and mouse bitter taste receptors by bile acids” (Communications Biology, 2023).
# Test system: HEK293T-Gα16gust44 cells transfected with empty vector (mock)
# Assay: Calcium imaging assay (FLIPR), empty vector control (mock)
# Format: cell-based
# Description: This set of bile acids was chosen because of their commercial availability in high purities, their diversity within the class of bile acids and their previous detection and quantitation in human blood. Stock solutions were prepared in DMSO.
# As basal growth medium for the HEK293T-Gα16gust44 cell line[17],[59] served Dulbecco’s modified eagle medium (DMEM) (Thermo Fisher Scientific, Darmstadt, Germany) supplemented with 10 % fetal bovine serum (Sigma-Aldrich, Steinheim, Germany), 2 mM L-glutamine (Sigma-Aldrich, Steinheim, Germany), 100 units/ml penicillin (Sigma Aldrich, Steinheim, Germany) and 100 µg/ml streptomycin (Sigma Aldrich, Steinheim, Germany). Growth conditions were 37 °C, 5 % CO2 and saturated air-humidity[60].
# HEK293T-Gα16gust44 cells were seeded on poly-D-lysine (10 µg/ml) coated 96-well plates to reach a confluence of 40-60 % the next day. For transient transfection 150 ng of plasmid DNA containing the receptor of interest and 0.3 µl lipofectamine 2000 (Thermo Fisher Scientific, Darmstadt, Germany) per well were used and transfection took place according to the manual of lipofectamine 2000. […] The empty vector DNA (mock) was transfected as negative control[14],[41].
# Cells were loaded using the calcium-sensitive fluorescent dye Fluo-4-AM (Abcam, Cambridge, Great Britain) in the presence of 2.5 mM probenecid (Sigma-Aldrich, Steinheim, Germany) the day after transfection[13],[41]. 1 h after loading, cells were washed with C1 buffer using a BioTek Cell Washer, incubated in the dark for half an hour and washed again. For automated agonist application and measurement of fluorescence changes, a FLIPR^TETRA device (Molecular Devices, San José, United States) was used. Viability of cells was tested by application of 100 nM Somatostatin 14 (Bachem, Bubendorf, Switzerland)[42].
# Measured data were negative control corrected by subtracting the signal of the mock-transfected cells and exported to Microsoft Excel using the FLIPR software ScreenWorks 4.2. In Microsoft Excel software, standardization of maximum fluorescence intensities to the basal fluorescence and normalization to the buffer-only control was done to calculate the relative fluorescence changes (ΔF/F).
# Initial screening experiments performed in duplicate wells were confirmed by at least one replication and representative traces were selected for display. All dose-response relationships were determined by three independent experiments (biological replicates) performed in duplicates (technical replicates). Threshold concentrations, defined as lowest substance concentrations leading to statistically significant elevated fluorescence changes in receptor-transfected cells compared with empty vector-transfected cells, were determined using SigmaPlot with Student’s t-test to evaluate statistical significance (p < 0.01).
# [1] = Mock (sheet Tas2r144), conc. 0,01 mM
# [2] = Mock (sheet Tas2r144), conc. 0,1 mM
# [3] = Mock (sheet Tas2r144), conc. 0,03 mM
# [4] = Mock (sheet Tas2r144), conc. 0,003 mM
# [5] = Mock, sheet TAS2R4, conc. 0,01 mM
# [6] = Mock, sheet TAS2R4, conc. 0,1 mM
# [7] = Mock, sheet TAS2R4, conc. 0,03 mM
# [8] = Mock, sheet TAS2R4, conc. 0,001 mM
# [9] = Mock, sheet TAS2R14, conc. 0,01 mM
# [10] = Mock, sheet TAS2R14, conc. 0,001 mM
# [11] = Mock, sheet TAS2R14, conc. 0,003 mM
# [12] = Mock, sheet TAS2R46, conc. 0,01 mM
# [13] = Mock, sheet TAS2R46, conc. 0,1 mM
# [14] = Mock, sheet TAS2R46, conc. 0,03 mM
# [15] = Mock, sheet TAS2R46, conc. 0,001 mM
# [16] = Mock, sheet TAS2R46, conc. 0,003 mM
# [17] = Mock, sheet Tas2r108, conc. 0,01 mM
# [18] = Mock, sheet Tas2r108, conc. 0,1 mM
# [19] = Mock, sheet Tas2r108, conc. 0,03 mM
# [20] = Mock, sheet Tas2r108, conc. 0,001 mM
# [21] = Mock, sheet Tas2r108, conc. 0,003 mM
# [22] = conc. 0,01 mM, Mock (sheet TAS2R1)
# [23] = conc. 0,03 mM, Mock (sheet TAS2R1)
# [24] = conc. 0,001 mM, Mock (sheet TAS2R1)
# [25] = conc. 0,003 mM, Mock (sheet TAS2R1)
smiles,measurement,setting,value
"C[C@H](CCC(=O)NCC(=O)O)[C@H]1CC[C@H]2[C@@H]3[C@H](O)C[C@@H]4C[C@H](O)CC[C@]4(C)[C@H]3C[C@H](O)[C@]12C [Glycocholic Acid, glycocholic acid]",Δ F/F,"Conc. 0,01 mM, Mock (sheet TAS2R39)",-0.01548
same,Δ F/F,"Conc. 0,1 mM, Mock (sheet TAS2R39)",-0.02609
same,Δ F/F,"Conc. 0,03 mM, Mock (sheet TAS2R39)",-0.02235
same,Δ F/F,"Conc. 0,3 mM, Mock (sheet TAS2R39)",-0.04919
same,Δ F/F,"Conc. 0,001 mM, Mock (sheet TAS2R39)",-0.01811
same,Δ F/F,"Conc. 1 mM, Mock (sheet TAS2R39)",-0.07251
same,Δ F/F,"Conc. 0,003 mM, Mock (sheet TAS2R39)",-0.02014
same,Δ F/F,"Mock (sheet Tas2r123), conc. 0,01 mM",-0.001257
same,Δ F/F,"Mock (sheet Tas2r123), conc. 0,1 mM",-0.001605
same,Δ F/F,"Mock (sheet Tas2r123), conc. 0,03 mM",-0.001376
same,Δ F/F,"Mock (sheet Tas2r123), conc. 0,3 mM",0.0005119
same,Δ F/F,"Mock (sheet Tas2r123), conc. 0,001 mM",-0.001339
same,Δ F/F,"Mock (sheet Tas2r123), conc. 0,003 mM",-0.001948
same,Δ F/F,"Mock (sheet Tas2r126), conc. 0,01 mM",-0.0096
same,Δ F/F,"Mock (sheet Tas2r126), conc. 0,1 mM",-0.02403
same,Δ F/F,"Mock (sheet Tas2r126), conc. 0,03 mM",-0.01217
same,Δ F/F,"Mock (sheet Tas2r126), conc. 0,3 mM",-0.03338
same,Δ F/F,"Mock (sheet Tas2r126), conc. 0,001 mM",-0.01229
same,Δ F/F,"Mock (sheet Tas2r126), conc. 1 mM",-0.06654
same,Δ F/F,"Mock (sheet Tas2r126), conc. 0,003 mM",-0.01228
same,Δ F/F,[1],0.0008421
same,Δ F/F,[2],0.001148
same,Δ F/F,[3],-3.983e-5
same,Δ F/F,"Mock (sheet Tas2r144), conc. 0,3 mM",0.0006824
same,Δ F/F,[4],0.002307
same,Δ F/F,[5],-0.0004971
same,Δ F/F,[6],-0.0007383
same,Δ F/F,[7],-0.0008538
same,Δ F/F,"Mock, sheet TAS2R4, conc. 0,3 mM",3.213e-5
same,Δ F/F,[8],-0.0002133
same,Δ F/F,"Mock, sheet TAS2R4, conc. 0,003 mM",-6.081e-5
same,Δ F/F,[9],-0.01698
same,Δ F/F,"Mock, sheet TAS2R14, conc. 0,1 mM",-0.02625
same,Δ F/F,"Mock, sheet TAS2R14, conc. 0,03 mM",-0.01883
same,Δ F/F,"Mock, sheet TAS2R14, conc. 0,3 mM",-0.03707
same,Δ F/F,[10],-0.0212
same,Δ F/F,"Mock, sheet TAS2R14, conc. 1 mM",-0.05126
same,Δ F/F,[11],-0.01715
same,Δ F/F,[12],-0.02275
same,Δ F/F,[13],-0.03044
same,Δ F/F,[14],-0.02768
same,Δ F/F,"Mock, sheet TAS2R46, conc. 0,3 mM",-0.0463
same,Δ F/F,[15],-0.02143
same,Δ F/F,"Mock, sheet TAS2R46, conc. 1 mM",-0.07983
same,Δ F/F,[16],-0.02717
same,Δ F/F,"Mock, sheet Tas2r105, conc. 0,01 mM",-0.01859
same,Δ F/F,"Mock, sheet Tas2r105, conc. 0,1 mM",-0.0309
same,Δ F/F,"Mock, sheet Tas2r105, conc. 0,03 mM",-0.02007
same,Δ F/F,"Mock, sheet Tas2r105, conc. 0,3 mM",-0.05122
same,Δ F/F,"Mock, sheet Tas2r105, conc. 0,001 mM",-0.01558
same,Δ F/F,"Mock, sheet Tas2r105, conc. 1 mM",-0.09069
same,Δ F/F,"Mock, sheet Tas2r105, conc. 0,003 mM",-0.01717
same,Δ F/F,[17],-0.01889
same,Δ F/F,[18],-0.02753
same,Δ F/F,[19],-0.02185
same,Δ F/F,"Mock, sheet Tas2r108, conc. 0,3 mM",-0.04768
same,Δ F/F,[20],-0.0151
same,Δ F/F,"Mock, sheet Tas2r108, conc. 1 mM",-0.06489
same,Δ F/F,[21],-0.01714
same,Δ F/F,"Mock, sheet Tas2r117, conc. 0,01 mM",-0.001257
same,Δ F/F,"Mock, sheet Tas2r117, conc. 0,1 mM",-0.001605
same,Δ F/F,"Mock, sheet Tas2r117, conc. 0,03 mM",-0.001376
same,Δ F/F,"Mock, sheet Tas2r117, conc. 0,3 mM",0.0005119
same,Δ F/F,"Mock, sheet Tas2r117, conc. 0,0003 mM",-0.001061
same,Δ F/F,"Mock, sheet Tas2r117, conc. 0,001 mM",-0.001339
same,Δ F/F,"Mock, sheet Tas2r117, conc. 0,003 mM",-0.001948
same,Δ F/F,[22],-0.001476
same,Δ F/F,"conc. 0,1 mM, Mock (sheet TAS2R1)",-0.002206
same,Δ F/F,[23],-0.001334
same,Δ F/F,"conc. 0,3 mM, Mock (sheet TAS2R1)",0.00174
same,Δ F/F,[24],-0.0005627
same,Δ F/F,[25],0.0001343
"C[C@H](CCC(=O)NCCS(=O)(=O)O)[C@H]1CC[C@H]2[C@@H]3CC[C@@H]4C[C@H](O)CC[C@]4(C)[C@H]3CC[C@]12C [Taurolithocholic Acid, taurolithocholic acid]",Δ F/F,[1],0.0005692
same,Δ F/F,[2],0.004595
same,Δ F/F,[3],0.0003601
same,Δ F/F,"Mock (sheet Tas2r144), conc. 0,00003 mM",0.006114
same,Δ F/F,"Mock (sheet Tas2r144), conc. 0,0001 mM",0.006504
same,Δ F/F,"Mock (sheet Tas2r144), conc. 0,0003 mM",0.0008548
same,Δ F/F,"Mock (sheet Tas2r144), conc. 0,001 mM",0.004624
same,Δ F/F,[4],0.001997
same,Δ F/F,[5],-0.008514
same,Δ F/F,[6],-0.00794
same,Δ F/F,[7],-0.01099
same,Δ F/F,"Mock, sheet TAS2R4, conc. 0,000001 mM",-0.003137
same,Δ F/F,"Mock, sheet TAS2R4, conc. 0,000003 mM",-0.007155
same,Δ F/F,"Mock, sheet TAS2R4, conc. 0,00001 mM",-0.00504
same,Δ F/F,"Mock, sheet TAS2R4, conc. 0,00003 mM",-0.003977
same,Δ F/F,"Mock, sheet TAS2R4, conc. 0,0001 mM",-0.003234
same,Δ F/F,"Mock, sheet TAS2R4, conc. 0,0003 mM",-0.004056
same,Δ F/F,[8],-0.007019
same,Δ F/F,[9],-0.03147
same,Δ F/F,"Mock, sheet TAS2R14, conc. 0,00001 mM",-0.004277
same,Δ F/F,"Mock, sheet TAS2R14, conc. 0,00003 mM",-0.0006944
same,Δ F/F,"Mock, sheet TAS2R14, conc. 0,0001 mM",-0.01329
same,Δ F/F,"Mock, sheet TAS2R14, conc. 0,0003 mM",-0.01832
same,Δ F/F,[10],-0.01976
same,Δ F/F,[11],-0.0246
same,Δ F/F,[12],-0.02971
same,Δ F/F,[13],-0.009753
same,Δ F/F,[14],-0.03052
same,Δ F/F,"Mock, sheet TAS2R46, conc. 0,0001 mM",-0.0128
same,Δ F/F,"Mock, sheet TAS2R46, conc. 0,0003 mM",-0.01683
same,Δ F/F,[15],-0.02076
same,Δ F/F,[16],-0.0306
same,Δ F/F,[17],-0.02695
same,Δ F/F,[18],-0.01465
same,Δ F/F,[19],-0.03132
same,Δ F/F,"Mock, sheet Tas2r108, conc. 0,00001 mM",-0.01948
same,Δ F/F,"Mock, sheet Tas2r108, conc. 0,00003 mM",-0.01658
same,Δ F/F,"Mock, sheet Tas2r108, conc. 0,0001 mM",-0.01596
same,Δ F/F,"Mock, sheet Tas2r108, conc. 0,0003 mM",-0.01689
same,Δ F/F,[20],-0.02887
same,Δ F/F,[21],-0.03792
same,Δ F/F,[22],0.0009651
same,Δ F/F,[23],-0.0002852
same,Δ F/F,"conc. 0,000001 mM, Mock (sheet TAS2R1)",0.0003466
same,Δ F/F,"conc. 0,000003 mM, Mock (sheet TAS2R1)",0.0002774
same,Δ F/F,"conc. 0,00001 mM, Mock (sheet TAS2R1)",-0.0001438
same,Δ F/F,"conc. 0,00003 mM, Mock (sheet TAS2R1)",0.0007699
same,Δ F/F,"conc. 0,0001 mM, Mock (sheet TAS2R1)",-0.00173
same,Δ F/F,"conc. 0,0003 mM, Mock (sheet TAS2R1)",0.00111
same,Δ F/F,[24],0.001414
same,Δ F/F,[25],-0.000959
